Patent US7105527B2, “N4-acylcytosine nucleosides for treatment of viral infections” (priority 2001, dated 2006)
Where two headings read alike, the source gives them in different places.

What was measured:
Vero cells = experiment: Cytotoxicity assay in Vero cells; assay type: cell-based
Protocol: (§1) The toxicity of the compounds was assessed in Vero, human PBM, CEM (human lymphoblastoid), MT-2, and HepG2 cells, as described previously (Schinazi […]., Cannon D. L., Xie […]., Smith […]. […] Cycloheximide was included as positive cytotoxic control, and untreated cells exposed to solvent were included as negative controls. The cytotoxicity IC50 was obtained from the concentration-response curve using the median effective method described previously (Chou […]. […] Belen'kii M. S. & Schinazi R. F.

MT-2 cells = experiment: Cytotoxicity assay in MT-2 cells; assay type: cell-based
Protocol: as §1

human PBM cells = experiment: Cytotoxicity assay in PBM cells; assay type: cell-based
Protocol: as §1

HIV-1RF = experiment: Anti-HIV (in MT-2 cells) assay, viral RNA accumulation; assay type: cell-based
Protocol: In a second antiviral testing system, the potency of the compounds was determined by measurement of viral RNA accumulation in HIV-1RF infected MT-2 cells (Bacheler L T, Paul M, Otto M J, Jadhav P K, Stone B A & Miller J A (1994) An assay for HIV RNIn infected cell lysates, and its use for rapid evaluation of antiviral efficacy. Antivir. Chem. Chemother. 5:111–121). The virus titer was established to determine the dilution producing 15 to 30 ng/RNA per well of HIV RNIn 3 days of infection. HIV-1 RNA was quantified using biotinylated capture and alkaline phosphatase-derivatized reporter oligonucleotides as described previously (Charvet A-S, Camplo M, Faury P, Graciet J C, Mourier N, Chermann J C & Kraus J L (1994) Inhibition of human immunodeficiency virus type 1 replication by phosphonoformate- and phosphonoacetate-2′,3′-dideoxy-3′-thiacytidine conjugates. J. Med. Chem. 37:2216–2223). In a third system, the effect of analogs on the replication of HIV-1NL4-3 was determined via the InterCompany Consortium consensus p24 assay as previously described (Jadhav P K & MacKay M F (1997) Cyclic urea amide: HIV-1 protease inhibitors with low nanomolar potency against both wild types and protease inhibitor resistant mutants of HIV. J. Med. Chem. 40:181–190). Recombinant viruses were recovered by transfecting the appropriate NL4-3 plasmid by lipofection. Virus stocks recovered 7 to 10 days post-transfection were titered on MT-4 cells to determine if the dilution produced 1,000 to 3,000 ng p24 in 4 days. This dilution was then used in drug susceptibility assays, where drug was added 24 h post infection of cells, and p24 quantified by ELISA 3 days later.

HIV-1LAl = experiment: Anti-HIV (in PBM cells) assay, reverse transcriptase readout; assay type: cell-based
Protocol: Anti-HIV-1 activity of the compounds was determined in human peripheral blood mononuclear (PBM) cells as described previously (Schinazi […]., Cannon D., Mathis R., Lloyd R. M. Jr., […]., St. Clair M., Wilson J., Furman P. A., Painter G., Choi […]. Antimicrob. Agents Chemother. 1992, 36, 2423; Schinazi […]., Cannon D., Xie […]., Smith G., Hahn E. Antimicrob. Agents Chemother. 1990, 34, 1061). Stock solutions ([…]) of the compounds were prepared in sterile DMSO and then diluted to the desired concentration in growth medium. […] Virus obtained from the cell supernatant was quantified on day 6 after infection by a reverse transcriptase assay using (rA)n.(dT)12.18 as template-primer. […] AZT was included as positive control. The antiviral EC50 and EC90 were obtained from the concentration-response curve using the median effective method described previously (Chou […]. Enzyme Regul. 1984, 22, 27-55; Belen'kii M. S. & Schinazi R. F. Antiviral Res. 1994, 25, 1-11).

HepG2 cells = experiment: Cytotoxicity assay in HepG2 cells; assay type: cell-based
Protocol: as §1

[1] = test system: CEM (human lymphoblastoid) cells; experiment: Cytotoxicity assay in CEM cells; assay type: cell-based
Protocol: as §1

[2] = Cytotoxicity assay in Vero cells; assay type: cell-based; settings: African green monkey
Protocol: as §1

[3] = Cytotoxicity assay in MT-2 cells; assay type: cell-based; settings: human
Protocol: as §1

[4] = Cytotoxicity assay in PBM cells; assay type: cell-based, human; settings: human, human PBM cells
Protocol: as §1

[5] = Cytotoxicity assay in HepG2 cells; assay type: cell-based; settings: human
Protocol: as §1

[6] = Cytotoxicity assay in CEM cells; assay type: cell-based, human; settings: human, CEM lymphoblastoid cells
Protocol: as §1

[7] = Table 1, read-out: Cytotoxicity in different cells (IC50, μM) Vero
[8] = Table 1, read-out: Cytotoxicity in different cells (IC50, μM) MT-2
[9] = Table 1, read-out: Cytotoxicity in different cells (IC50, μM) PBM
[10] = Table 1, EC90, MT-2 cells, read-out: Anti-HIV-1 activity in different cells (EC90, μM) MT-2
[11] = Table 1, read-out: Anti-HIV-1 activity in different cells (EC90, μM) PBM
[12] = Table 1, read-out: Cytotoxicity in different cells (IC50, μM) HepG2
[13] = Table 1, read-out: Cytotoxicity in different cells (IC50, μM) CEM
[14] = Human immunodeficiency virus 1, MT2, Table 1, EC90, MT-2 cells, read-out: Anti-HIV-1 activity in different cells (EC90, μM) MT-2
[15] = Human immunodeficiency virus 1, PBMC, Table 1, read-out: Anti-HIV-1 activity in different cells (EC90, μM) PBM
[16] = Table 2, read-out: Cytotoxicity in different cells (IC50, μM) MT-2
[17] = Table 2, read-out: Cytotoxicity in different cells (IC50, μM) PBM
[18] = Human immunodeficiency virus 1, MT2, Table 2, EC90, MT-2 cells, read-out: Anti-HIV-1 activity in different cells (EC90, μM) MT-2
[19] = Human immunodeficiency virus 1, PBMC, Table 2, read-out: Anti-HIV-1 activity in different cells (EC90, μM) PBM
[20] = Table 2, read-out: Cytotoxicity in different cells (IC50, μM) HepG2
[21] = Table 2, read-out: Cytotoxicity in different cells (IC50, μM) Vero
[22] = Table 2, read-out: Cytotoxicity in different cells (IC50, μM) CEM

COc1ccc(C(=O)Nc2nc(=O)n([C@H]3CC[C@@H](CO)O3)cc2F)cc1 [Compound 17, β-D-N^4-p-Anisoyl-2′,3′-dideoxy-5-fluorocytidine]
IC50 (Vero cells; [7]): 5.3 µM
IC50 (MT-2 cells; [8]): 16 µM
IC50 (human PBM cells; [9]): 69.2 µM
EC90 (HIV-1RF; [10]): 6 µM
EC90 (HIV-1LAl; [11]): 8.31 µM
IC50 (HepG2 cells; [12]): 4.5 µM
IC50 [1, 13]: 31.6 µM

Cc1cccc(C(=O)Nc2nc(=O)n([C@H]3CC[C@@H](CO)O3)cc2F)c1 [Compound 23, β-D-2′,3′-Dideoxy-5-fluoro-N-m-toluoylcytidine]
IC50 [2, 7]: 61.1 µM
IC50 [3, 8]: > 50 µM
IC50 [4, 9]: 8.4 µM
EC90 (HIV-1RF; [14]): 0.24 µM
EC90 (HIV-1LAl; [15]): 0.012 µM
IC50 [5, 12]: > 100 µM
IC50 [6, 13]: > 100 µM

CCCCc1ccc(C(=O)Nc2nc(=O)n([C@H]3CC[C@@H](CO)O3)cc2F)cc1 [Compound 27, β-D-N^4-(4-n-Butylbenzoyl)-2,3′-dideoxy-5-fluorocytidine]
IC50 (Vero cells; [7]): 3.2 µM
IC50 (human PBM cells; [9]): 1.1 µM
EC90 (HIV-1LAl; [11]): 0.31 µM
IC50 (HepG2 cells; [12]): 1.9 µM
IC50 [1, 13]: 1.3 µM

CC(C)(C)c1ccc(C(=O)Nc2nc(=O)n([C@H]3CC[C@@H](CO)O3)cc2F)cc1 [Compound 28, β-D-N^4-(4-tert-Butylbenzoyl)-2,3′-dideoxy-5-fluorocytidine]
IC50 (Vero cells; [7]): 25.9 µM
IC50 (human PBM cells; [9]): 12.5 µM
EC90 (HIV-1RF; [10]): 0.6 µM
EC90 (HIV-1LAl; [11]): 0.088 µM
IC50 (HepG2 cells; [12]): 21.3 µM
IC50 [1, 13]: 6 µM

O=C(Nc1nc(=O)n([C@H]2CC[C@@H](CO)O2)cc1F)c1cccs1 [Compound 30, β-D-2′,3′-Dideoxy-5-fluoro-N^4-(2-thiophenecarbonyl)cytidine]
IC50 [2, 7]: 23.9 µM
IC50 [3, 8]: > 50 µM
IC50 [4, 9]: 19.4 µM
EC90 (HIV-1RF; [14]): 0.4 µM
EC90 (HIV-1LAl; [15]): 0.052 µM
IC50 [5, 12]: 37.9 µM
IC50 [6, 13]: 13.7 µM

O=C(Nc1nc(=O)n([C@H]2CC[C@@H](CO)O2)cc1F)c1cc2ccccc2s1 [Compound 32, β-D-2′,3′-Dideoxy-5-fluoro-N^4-(benzo[b]thiophene-2-carbonyl)cytidine]
IC50 [2, 7]: 39.6 µM
IC50 [3, 8]: > 50 µM
IC50 [4, 9]: 23.5 µM
EC90 (HIV-1RF; [14]): 0.3 µM
EC90 (HIV-1LAl; [15]): 0.19 µM
IC50 [5, 12]: 1.3 µM
IC50 [6, 13]: 4.5 µM

O=C(Nc1nc(=O)n([C@H]2CC[C@@H](CO)O2)cc1F)C1CCCCC1 [Compound 33, β-D-N^4-(Cyclohexanecarbonyl)-2′,3′-dideoxy-5-fluorocytidine]
IC50 [2, 7]: 11.8 µM
IC50 [3, 8]: 50 µM
IC50 [4, 9]: 4.5 µM
EC90 (HIV-1RF; [14]): 0.3 µM
EC90 (HIV-1LAl; [15]): 0.086 µM
IC50 [5, 12]: 6.5 µM
IC50 [6, 13]: 6.4 µM

COc1ccc(C(=O)Nc2nc(=O)n([C@H]3C=C[C@@H](CO)O3)cc2F)cc1 [Compound 42, β-D-N^4-p-Anisoyl-2′,3′-didehydro-2′,3′dideoxy-5-fluorocytidine]
IC50 [3, 16]: > 50 µM
IC50 [4, 17]: > 100 µM
EC90 (HIV-1RF; [18]): 0.58 µM
EC90 (HIV-1LAl; [19]): 0.7 µM
IC50 [5, 20]: > 100 µM

O=C(Nc1nc(=O)n([C@H]2C=C[C@@H](CO)O2)cc1F)c1cccc([N+](=O)[O-])c1 [Compound 46, β-D-2′,3′-Didehydro-2,3′-dideoxy-5-fluoro-N^4-(3-nitrobenzoyl)cytidine]
IC50 [2, 21]: > 100 µM
IC50 [3, 16]: > 50 µM
IC50 [4, 17]: 11.9 µM
EC90 (HIV-1RF; [18]): 0.58 µM
EC90 (HIV-1LAl; [19]): 0.93 µM
IC50 [5, 20]: > 100 µM
IC50 [6, 22]: 54.5 µM

Cc1ccc(C(=O)Nc2nc(=O)n([C@H]3C=C[C@@H](CO)O3)cc2F)cc1 [Compound 48, β-D-2′,3′-Didehydro-2′,3′-dideoxy-5-fluoro-N^4-p-toluoylcytidine]
IC50 [2, 21]: > 100 µM
IC50 [3, 16]: > 50 µM
IC50 [4, 17]: 13.2 µM
EC90 (HIV-1RF; [18]): 0.21 µM
EC90 (HIV-1LAl; [19]): 0.32 µM
IC50 [5, 20]: > 100 µM
IC50 [6, 22]: 31.9 µM

Cc1cccc(C(=O)Nc2nc(=O)n([C@H]3C=C[C@@H](CO)O3)cc2F)c1 [Compound 49, β-D-2,3′-Didehydro-2,3′-dideoxy-5-fluoro-N^4-m-toluoylcytidine]
IC50 [2, 21]: 149 µM
IC50 [3, 16]: > 50 µM
IC50 [4, 17]: 57.1 µM
EC90 (HIV-1RF; Human immunodeficiency virus 1, MT2, read-out: Anti-HIV-1 activity in different cells (EC90, μM) MT-2): 0.8 µM
EC90 (HIV-1LAl; [19]): 0.7 µM
IC50 [5, 20]: > 100 µM
IC50 [6, 22]: 34.9 µM

CCCCc1ccc(C(=O)Nc2nc(=O)n([C@H]3C=C[C@@H](CO)O3)cc2F)cc1 [Compound 52, β-D-N^4-(4-n-Butylbenzoyl)-2′,3′-didehydro-2,3′-dideoxy-5-fluoro-^4cytidine]
IC50 (Vero cells; [21]): 29.4 µM
IC50 (human PBM cells; [17]): 7.3 µM
EC90 (HIV-1LAl; Table 2, read-out: Anti-HIV-1 activity in different cells (EC90, μM) PBM): 3.1 µM
IC50 (HepG2 cells; [20]): 5.1 µM
IC50 [1, 22]: 8.5 µM

O=C(Nc1nc(=O)n([C@H]2C=C[C@@H](CO)O2)cc1F)C1CCCC1 [Compound 57, β-D-N^4-(Cyclopentanecarbonyl)-2′,3′-didehydro-2′,3′-dideoxy-5-fluorocytidine]
IC50 [2, 21]: 87.6 µM
IC50 [3, 16]: > 50 µM
IC50 [4, 17]: 52.9 µM
EC90 (HIV-1RF; [18]): 0.51 µM
EC90 (HIV-1LAl; [19]): 0.4 µM
IC50 [5, 20]: > 100 µM
IC50 [6, 22]: 19.6 µM

O=C(Nc1nc(=O)n([C@H]2C=C[C@@H](CO)O2)cc1F)C1CCCCC1 [Compound 58, β-D-N-(Cyclohexanecarbonyl)-2′ 3′-didehydro-2′,3′-dideoxy-5-fluorocytidine]
IC50 [2, 21]: > 100 µM
IC50 [3, 16]: > 50 µM
IC50 [4, 17]: 11.7 µM
EC90 (HIV-1RF; [18]): 0.38 µM
EC90 (HIV-1LAl; [19]): 0.6 µM
IC50 [5, 20]: > 100 µM
IC50 [6, 22]: 11.2 µM

CCCCCCC(=O)Nc1nc(=O)n(C2C=CC(CO)O2)cc1F [Compound 59, β-D-2′,3′-Didehydro-2′,3′-dideoxy-5-fluoro-N^4-heptanoylcytidine]
IC50 (MT-2 cells; [16]): 6.2 µM
EC90 (HIV-1RF; Table 2, EC90, MT-2 cells, read-out: Anti-HIV-1 activity in different cells (EC90, μM) MT-2): 0.23 µM
